Results reported in US20130149383A1, “SUSTAINED RELEASE PARTICLE FORMULATIONS OF GUAIFENESIN” (priority 2011, published 2013).
In brackets after ≈: the same amount, converted by molar mass.

Assays:
[1] = Equilibrium solubility determination in liquid vehicle (HPLC); type: physicochemical; conditions: 40 °C, thermodynamic from solid; guaifenesin in liquid vehicle, 40° for two days, n=3
Protocol: The objective of this example was to determine the […] using “HPLC protocol”. About 500 mg of guaifenesin was added into 20 ml of a liquid vehicle. The suspend solution were then shaken and then placed at 40° for two days. The supernatant was then filtered off using a syringe with a 0.45 μm filter, and diluted so that the absorbencies fell within the UV (25-fold dilution). The diluted clear solutions were equilibrium solubility samples, termed as “samples” in the “HPLC protocol’. The “HPLC protocol” was then followed (See below).
A 20 mL of stock solution of the drug was prepared in DI water at a concentration of 1 mg/mL. The solution was left at room temperature for 5 min to get the drug dissolved. The stock solution was appropriately diluted to get several concentrations ranging from 0.1 mg/mL to 1 mg/mL (See FIG. 1). Samples were prepared by appropriately diluting the samples collected using “USP dissolution protocol” to ensure that the drug concentration level falls within the range of the standard curve (e.g., 2× dilution).
HPLC was prepared by first washing the column with the wash buffer (acetonitrile:water 50:50 (v/v)) for 10 min. […]

[2] = cited from earlier work

Question: With `COc1ccccc1OCC(O)CO` (centres unmarked) [Guaifenesin, 3-(2-methoxyphenoxy)-1,2-propanediol] as the molecule, how does the solubility thermodynamic at 2 days [1] read?
Answer: The solubility thermodynamic at 2 days was 9590 ± 340 µg/mL (≈ 48.4 mM).

Question: What about the water solubility [2] of the same molecule?
Answer: Its water solubility is “highly water soluble”.
